Experimental data taken from patent publication US9302999B2, “Substituted triazoles as herbicides” (E. I. DU PONT DE NEMOURS AND COMPANY, priority 2012, dated 2016).

Assays:
Type in all cases: in vivo
[1] = system: ducksalad (Heteranthera limosa); test: Test C flooded paddy test: ducksalad; conditions: scale 0 to 100 (0 no effect, 100 complete control)
Summary of the method: (§1)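 Rating: visual, 0–100 (100 = complete control), versus untreated controls after 13 to 15 greenhouse days. Treatment went into paddy water held at 3 cm over the soil, on plants grown to two leaves.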

rice (Oryza sativa) = test: Test C flooded paddy test: rice; conditions: scale 0 to 100 (0 no effect, 100 complete control)
Summary of the method: as §1

[2] = system: morningglory (Ipomoea spp.); test: Test A pre-/postemergence: morningglory; conditions: for Morningglory plant response rating: Postemergence; for Plant response rating, Morningglory: Preemergence
Summary of the method: (§2)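 Plants in loam–sand blend were treated with test chemicals in non-phytotoxic solvent with surfactant, either as preemergence directed soil spray or postemergence at 2–10 cm, one- to two-leaf stage. After about ten days in greenhouse, injury was rated visually against untreated controls on a 0–100 scale (100 = complete control).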

[3] = system: velvetleaf (Abutilon theophrasti); test: Test A pre-/postemergence: velvetleaf; conditions: for Velvetleaf plant response rating: Postemergence; for Plant response rating, Velvetleaf: Preemergence
Summary of the method: as §2

[4] = system: sedge, umbrella (small-flower umbrella sedge, Cyperus difformis); test: Test C flooded paddy test: sedge, umbrella; conditions: scale 0 to 100 (0 no effect, 100 complete control)
Summary of the method: as §1

[5] = system: foxtail, giant (giant foxtail, Setaria faberii); test: Test A pre-/postemergence: foxtail, giant; conditions: for Foxtail, Giant plant response rating: Postemergence; for Plant response rating, Foxtail, Giant: Preemergence
Summary of the method: as §2

[6] = system: barnyardgrass (Echinochloa crus-galli); test: Test A pre-/postemergence: barnyardgrass; conditions: for Barnyardgrass plant response rating: Postemergence; for Plant response rating, Barnyardgrass: Preemergence
Summary of the method: as §2

[7] = system: crabgrass, large (large crabgrass, Digitaria sanguinalis); test: Test A pre-/postemergence: crabgrass, large; conditions: for Crabgrass, Large plant response rating: Postemergence; for Plant response rating, Crabgrass, Large: Preemergence
Summary of the method: as §2

[8] = system: pigweed (Amaranthus retroflexus); test: Test A pre-/postemergence: pigweed; conditions: for Pigweed plant response rating: Postemergence; for Plant response rating, Pigweed: Preemergence
Summary of the method: as §2

[9] = system: barnyardgrass (Echinochloa crus-galli); test: Test C flooded paddy test: barnyardgrass; conditions: scale 0 to 100 (0 no effect, 100 complete control)
Summary of the method: as §1

[10] = system: wheat (Triticum aestivum); test: Test A pre-/postemergence: wheat; conditions: for Wheat plant response rating: Postemergence; for Plant response rating, Wheat: Preemergence
Summary of the method: as §2

corn (Zea mays) = test: Test A pre-/postemergence: corn; conditions: for Corn plant response rating: Postemergence; for Plant response rating, Corn: Preemergence
Summary of the method: as §2

[11] = Flood (flooded paddy test), 62 g ai/ha, visual rating after 13 to 15 days
[12] = Flood (flooded paddy test), 125 g ai/ha, visual rating after 13 to 15 days
[13] = Flood (flooded paddy test), 250 g ai/ha, visual rating after 13 to 15 days
[14] = 125 g ai/ha, 0 to 100 scale, 0 is no effect, 100 is complete control
[15] = 500 g ai/ha, visual rating on 0 to 100 scale (0 no effect, 100 complete control), approximately ten days
[16] = 125 g ai/ha, 0 to 100 scale (0 no effect, 100 complete control)
[17] = 500 g ai/ha, 0 to 100 scale, 0 is no effect, 100 is complete control

Cc1nn(-c2cccc(C(F)(F)F)c2)nc1Oc1cccc(C(F)(F)F)c1 [Compound 70]
10: Morningglory plant response rating [2, 14] | Velvetleaf plant response rating [3, 14] | Foxtail, Giant plant response rating [5, 14] | Barnyardgrass plant response rating [6, 15] | Crabgrass, Large plant response rating [7, 14] | Plant response rating, Pigweed [8, 17] | Wheat plant response rating [10, 15] | Corn plant response rating (corn (Zea mays); [14])
30: Crabgrass, Large plant response rating [7, 15]
20: Morningglory plant response rating [2, 15] | Foxtail, Giant plant response rating [5, 15] | Corn plant response rating (corn (Zea mays); [15])
40: Plant response rating, Crabgrass, Large [7, 17] | Pigweed plant response rating [8, 14]
0: Plant response rating, Ducksalad [1, 11] | Plant response rating, Ducksalad [1, 12] | Plant response rating, Ducksalad [1, 13] | Plant response rating, Ducksalad ([1]; Flood, 31 g ai/ha) | Plant response rating, Rice (rice (Oryza sativa); [11]) | Plant response rating, Rice (rice (Oryza sativa); [12]) | Plant response rating, Rice (rice (Oryza sativa); [13]) | Plant response rating, Rice (rice (Oryza sativa); Flood, 31 g ai/ha) | Plant response rating, Morningglory [2, 16] | Plant response rating, Morningglory [2, 17] | Plant response rating, Velvetleaf [3, 16] | Plant response rating, Velvetleaf [3, 17] | Plant response rating, Sedge, Umbrella [4, 11] | Plant response rating, Sedge, Umbrella [4, 12] | Plant response rating, Sedge, Umbrella [4, 13] | Plant response rating, Sedge, Umbrella ([4]; Flood, 31 g ai/ha) | Plant response rating, Foxtail, Giant [5, 16] | Barnyardgrass plant response rating [6, 14] | Plant response rating, Barnyardgrass [6, 16] | Plant response rating, Barnyardgrass [6, 17] | Plant response rating, Crabgrass, Large [7, 16] | Plant response rating, Pigweed [8, 16] | Plant response rating, Barnyardgrass [9, 11] | Plant response rating, Barnyardgrass [9, 12] | Plant response rating, Barnyardgrass [9, 13] | Plant response rating, Barnyardgrass ([9]; Flood, 31 g ai/ha) | Wheat plant response rating [10, 14] | Plant response rating, Wheat [10, 16] | Plant response rating, Wheat [10, 17] | Plant response rating, Corn (corn (Zea mays); [16]) | Plant response rating, Corn (corn (Zea mays); [17])
50: Velvetleaf plant response rating [3, 15] | Plant response rating, Foxtail, Giant [5, 17]
100: Pigweed plant response rating [8, 15]

Cc1nn(-c2ccc(C(F)(F)F)cc2)nc1Oc1ccccc1Cl [Compound 82]
0: Plant response rating, Ducksalad [1, 12] | Plant response rating, Ducksalad [1, 13] | Plant response rating, Ducksalad ([1]; Flood, 31 g ai/ha) | Plant response rating, Ducksalad ([1]; Flood, 62 g ai/ha) | Plant response rating, Rice (rice (Oryza sativa); [12]) | Plant response rating, Rice (rice (Oryza sativa); [13]) | Plant response rating, Rice (rice (Oryza sativa); Flood, 31 g ai/ha) | Plant response rating, Rice (rice (Oryza sativa); Flood, 62 g ai/ha) | Morningglory plant response rating [2, 14] | Morningglory plant response rating [2, 15] | Plant response rating, Morningglory [2, 16] | Plant response rating, Morningglory [2, 17] | Velvetleaf plant response rating [3, 14] | Velvetleaf plant response rating [3, 15] | Plant response rating, Velvetleaf [3, 16] | Plant response rating, Velvetleaf [3, 17] | Plant response rating, Sedge, Umbrella [4, 12] | Plant response rating, Sedge, Umbrella [4, 13] | Plant response rating, Sedge, Umbrella ([4]; Flood, 31 g ai/ha) | Plant response rating, Sedge, Umbrella ([4]; Flood, 62 g ai/ha) | Foxtail, Giant plant response rating [5, 14] | Foxtail, Giant plant response rating [5, 15] | Plant response rating, Foxtail, Giant [5, 16] | Plant response rating, Foxtail, Giant [5, 17] | Barnyardgrass plant response rating [6, 14] | Barnyardgrass plant response rating [6, 15] | Plant response rating, Barnyardgrass [6, 16] | Plant response rating, Barnyardgrass [6, 17] | Crabgrass, Large plant response rating [7, 14] | Crabgrass, Large plant response rating [7, 15] | Plant response rating, Crabgrass, Large [7, 16] | Plant response rating, Crabgrass, Large [7, 17] | Pigweed plant response rating [8, 14] | Pigweed plant response rating [8, 15] | Plant response rating, Pigweed [8, 16] | Plant response rating, Pigweed [8, 17] | Plant response rating, Barnyardgrass [9, 12] | Plant response rating, Barnyardgrass [9, 13] | Plant response rating, Barnyardgrass ([9]; Flood, 31 g ai/ha) | Plant response rating, Barnyardgrass ([9]; Flood, 62 g ai/ha) | Wheat plant response rating [10, 14] | Wheat plant response rating [10, 15] | Plant response rating, Wheat [10, 16] | Plant response rating, Wheat [10, 17] | Corn plant response rating (corn (Zea mays); [14]) | Corn plant response rating (corn (Zea mays); [15]) | Plant response rating, Corn (corn (Zea mays); [16]) | Plant response rating, Corn (corn (Zea mays); [17])
